Activity calls are given as the source filed them.
Assays:
[1] = molecular target: T1, Oxysterols receptor LXR-beta (Homo sapiens, UniProt P55055); type: functional, cell-based;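 also: Cell-based luminescence dose-response assay of agonist activity at LXR, run as a confirmatory counterscreen to a daf-12 agonist screen; HEK293 cells with Gal4-LXR fusion and GAL4-driven luciferase reporter; agonist potency from rising luciferase signal of a Gal4-LXR reporter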
T1 sequence (P55055 whole entry): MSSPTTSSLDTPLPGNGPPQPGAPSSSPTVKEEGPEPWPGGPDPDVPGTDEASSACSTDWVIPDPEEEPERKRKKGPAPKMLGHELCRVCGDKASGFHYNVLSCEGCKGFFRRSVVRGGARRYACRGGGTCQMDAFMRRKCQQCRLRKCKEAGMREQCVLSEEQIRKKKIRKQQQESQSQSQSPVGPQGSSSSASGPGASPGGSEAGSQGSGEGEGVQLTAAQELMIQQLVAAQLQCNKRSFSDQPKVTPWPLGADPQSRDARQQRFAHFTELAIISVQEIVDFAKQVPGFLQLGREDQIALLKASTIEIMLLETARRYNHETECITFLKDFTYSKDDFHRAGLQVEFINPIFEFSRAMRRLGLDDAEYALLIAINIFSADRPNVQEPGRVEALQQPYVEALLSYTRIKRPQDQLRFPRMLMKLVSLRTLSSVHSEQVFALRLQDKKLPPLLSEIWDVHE

cells [2] = test: cells
[3] = Luminescence Cell-Based Dose Response to Identify Activators of 5'UTR Stem-Loop Driven Prion Protein mRNA Translation in H4-C Neuroglioblastoma Cells. [Related pubchem assays: 1829 (Project Summary), 1814 (Primary HTS)]; type: functional
[4] = Luminescence Cell-Based Dose Response to Identify Activators of Luciferase Translation or Activity in H4-C Neuroglioblastoma Cells. [Related pubchem assays: 1829 (Project Summary), 1814 (Primary HTS)]; type: functional
[5] = Luminescence Cell-Based Dose Confirmation to Identify Activators of 5'UTR Stem-Loop Driven Alpha-Synuclein mRNA Translation in H4 Neuroglioblastoma Cells. [Related pubchem assays: 1829 (Project Summary), 1814 (Primary HTS)]; type: functional
H4 = test: Luminescence Cell-Based Dose Response HTS to Identify Activators of 5'UTR Stem-Loop Driven Prion Protein mRNA Translation in H4 Neuroglioblastoma Cells. [Related pubchem assays: 1829 (Project Summary), 1814 (Primary HTS)]; type: functional; settings: Homo sapiens
[6] = Luminescence Cell-Based Dose Response HTS to Identify Activators of Luciferase Translation or Activity in H4 […] Cells. [Related pubchem assays: 1829 (Project Summary), 1814 (Primary HTS)]; type: functional
cells [7] = type: functional, cell-based; settings: HEK-CNG
Galanin receptor type 3 = molecular target: T2, Galanin receptor type 3 (Homo sapiens, UniProt O60755); test: Fluorescence-based cell-based primary high throughput dose response assay to identify antagonists of the Galanin Receptor 3 (GalR3).; type: functional
T2 sequence (O60755 whole entry): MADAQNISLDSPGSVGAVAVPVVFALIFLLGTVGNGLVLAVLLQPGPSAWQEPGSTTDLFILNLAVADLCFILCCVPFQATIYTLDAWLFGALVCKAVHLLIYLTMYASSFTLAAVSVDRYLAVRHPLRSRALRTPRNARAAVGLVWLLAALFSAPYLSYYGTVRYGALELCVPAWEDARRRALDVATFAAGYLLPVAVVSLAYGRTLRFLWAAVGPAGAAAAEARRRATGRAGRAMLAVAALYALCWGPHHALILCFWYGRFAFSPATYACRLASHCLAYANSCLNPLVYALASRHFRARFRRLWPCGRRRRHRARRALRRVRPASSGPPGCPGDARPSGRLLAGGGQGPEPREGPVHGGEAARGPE

[8] = molecular target: T3, Heat shock factor protein 1 (Mus musculus, UniProt P38532); test: HSF1 potentiators in luciferase reporter cells, confirmation, cell-based, NIH3T3, luminescence, dose retest (AID 435004); type: functional;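 also: stress induced by proteasome inhibitor MG132 added 30 min after compound; luciferase reporter driven by HSF1 response element in NIH3T3 cells; actives raise luminescence as potentiators of the MG132 stress response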
T3 sequence (P38532 whole entry): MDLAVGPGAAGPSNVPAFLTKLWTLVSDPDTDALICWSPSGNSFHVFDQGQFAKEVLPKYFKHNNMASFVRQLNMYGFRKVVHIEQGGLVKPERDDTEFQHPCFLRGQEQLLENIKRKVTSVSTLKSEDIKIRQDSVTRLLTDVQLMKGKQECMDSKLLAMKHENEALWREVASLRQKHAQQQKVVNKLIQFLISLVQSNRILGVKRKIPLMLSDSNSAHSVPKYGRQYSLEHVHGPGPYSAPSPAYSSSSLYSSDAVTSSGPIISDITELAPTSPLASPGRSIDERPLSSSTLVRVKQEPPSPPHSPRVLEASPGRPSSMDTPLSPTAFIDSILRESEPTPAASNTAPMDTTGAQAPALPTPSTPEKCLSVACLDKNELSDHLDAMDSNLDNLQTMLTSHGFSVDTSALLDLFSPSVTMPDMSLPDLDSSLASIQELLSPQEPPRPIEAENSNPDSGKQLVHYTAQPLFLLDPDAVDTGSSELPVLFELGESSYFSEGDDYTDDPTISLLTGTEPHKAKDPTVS

[9] = molecular target: T4, DNA repair protein RAD52 homolog (Homo sapiens, UniProt P43351); type: functional, biochemical
T4 sequence (P43351 whole entry): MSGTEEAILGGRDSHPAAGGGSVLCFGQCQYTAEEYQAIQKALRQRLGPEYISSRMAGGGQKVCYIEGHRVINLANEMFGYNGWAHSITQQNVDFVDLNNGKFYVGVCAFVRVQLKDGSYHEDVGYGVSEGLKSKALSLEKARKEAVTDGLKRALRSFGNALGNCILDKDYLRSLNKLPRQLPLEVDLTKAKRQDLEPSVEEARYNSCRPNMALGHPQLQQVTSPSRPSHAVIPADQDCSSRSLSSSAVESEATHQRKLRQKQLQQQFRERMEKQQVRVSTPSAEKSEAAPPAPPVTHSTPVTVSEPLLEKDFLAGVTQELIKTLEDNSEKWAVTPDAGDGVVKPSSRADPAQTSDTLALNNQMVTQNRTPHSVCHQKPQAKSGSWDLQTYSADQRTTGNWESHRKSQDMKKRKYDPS

[10] = molecular target: T5, Histone-lysine N-methyltransferase NSD2 (Homo sapiens, UniProt O96028); type: biochemical
T5 sequence (O96028 whole entry): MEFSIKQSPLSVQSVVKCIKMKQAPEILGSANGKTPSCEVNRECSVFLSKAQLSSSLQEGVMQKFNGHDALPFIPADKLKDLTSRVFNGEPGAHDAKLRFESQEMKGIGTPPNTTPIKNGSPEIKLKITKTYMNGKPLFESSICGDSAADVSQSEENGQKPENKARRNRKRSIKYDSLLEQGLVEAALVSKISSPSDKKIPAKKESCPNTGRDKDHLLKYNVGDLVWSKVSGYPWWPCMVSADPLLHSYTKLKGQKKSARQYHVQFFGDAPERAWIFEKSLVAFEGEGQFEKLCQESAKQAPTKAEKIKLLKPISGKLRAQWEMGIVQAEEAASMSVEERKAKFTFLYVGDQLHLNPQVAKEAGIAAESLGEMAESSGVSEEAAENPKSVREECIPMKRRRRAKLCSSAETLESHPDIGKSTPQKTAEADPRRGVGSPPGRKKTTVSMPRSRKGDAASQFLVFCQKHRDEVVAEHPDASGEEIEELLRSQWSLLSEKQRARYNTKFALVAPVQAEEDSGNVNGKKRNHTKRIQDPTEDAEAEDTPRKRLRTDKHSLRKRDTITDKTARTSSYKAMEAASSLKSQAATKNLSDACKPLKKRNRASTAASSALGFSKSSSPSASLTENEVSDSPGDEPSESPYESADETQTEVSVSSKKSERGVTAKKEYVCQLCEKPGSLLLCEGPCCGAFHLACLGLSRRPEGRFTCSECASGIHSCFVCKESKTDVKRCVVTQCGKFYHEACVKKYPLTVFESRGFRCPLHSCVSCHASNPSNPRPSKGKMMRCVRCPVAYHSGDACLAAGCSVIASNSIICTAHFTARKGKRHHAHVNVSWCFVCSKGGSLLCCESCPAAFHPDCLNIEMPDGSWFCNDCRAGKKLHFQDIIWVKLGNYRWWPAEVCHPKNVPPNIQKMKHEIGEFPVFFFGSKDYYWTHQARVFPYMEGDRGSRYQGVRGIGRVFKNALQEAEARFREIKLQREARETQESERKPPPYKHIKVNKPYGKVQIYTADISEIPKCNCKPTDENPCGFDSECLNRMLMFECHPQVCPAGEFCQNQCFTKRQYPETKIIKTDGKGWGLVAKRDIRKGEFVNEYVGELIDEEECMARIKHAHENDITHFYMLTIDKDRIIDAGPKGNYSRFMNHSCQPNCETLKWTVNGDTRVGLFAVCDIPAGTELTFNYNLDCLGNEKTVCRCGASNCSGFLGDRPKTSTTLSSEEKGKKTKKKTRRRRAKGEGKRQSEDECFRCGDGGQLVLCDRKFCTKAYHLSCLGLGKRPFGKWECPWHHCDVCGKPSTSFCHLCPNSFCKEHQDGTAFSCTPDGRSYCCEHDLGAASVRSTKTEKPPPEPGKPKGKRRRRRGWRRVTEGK

[11] = molecular target: T6, Calpain-2 catalytic subunit (Sus scrofa, UniProt P43367); test: pig calpain II inhibitor potency, dose response, biochemical, fluorogenic peptide substrate (AID 1420); type: functional
T6 sequence (P43367 whole entry): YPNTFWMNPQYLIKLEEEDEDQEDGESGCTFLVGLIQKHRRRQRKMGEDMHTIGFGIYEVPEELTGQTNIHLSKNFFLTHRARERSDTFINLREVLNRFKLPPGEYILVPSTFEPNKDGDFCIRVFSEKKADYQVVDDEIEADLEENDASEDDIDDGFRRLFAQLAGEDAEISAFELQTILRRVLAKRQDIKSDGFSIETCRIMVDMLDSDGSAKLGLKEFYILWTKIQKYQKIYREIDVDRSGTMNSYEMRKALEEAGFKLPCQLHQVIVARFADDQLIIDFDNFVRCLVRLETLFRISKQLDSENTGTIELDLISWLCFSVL

Paired box protein Pax-8 = Paired box protein Pax-8 (Homo sapiens, UniProt Q06710); test: inhibitors of PAX8-driven TPO luciferase reporter, dose response, RMG-I cells, cherry-pick (AID 687027); type: functional, cell-based;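 also: luciferase reporter driven by Pax8 target thyroperoxidase promoter measured by SteadyGlo luminescence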
Sequence of Paired box protein Pax-8 (Q06710 whole entry, the tested form may be a part): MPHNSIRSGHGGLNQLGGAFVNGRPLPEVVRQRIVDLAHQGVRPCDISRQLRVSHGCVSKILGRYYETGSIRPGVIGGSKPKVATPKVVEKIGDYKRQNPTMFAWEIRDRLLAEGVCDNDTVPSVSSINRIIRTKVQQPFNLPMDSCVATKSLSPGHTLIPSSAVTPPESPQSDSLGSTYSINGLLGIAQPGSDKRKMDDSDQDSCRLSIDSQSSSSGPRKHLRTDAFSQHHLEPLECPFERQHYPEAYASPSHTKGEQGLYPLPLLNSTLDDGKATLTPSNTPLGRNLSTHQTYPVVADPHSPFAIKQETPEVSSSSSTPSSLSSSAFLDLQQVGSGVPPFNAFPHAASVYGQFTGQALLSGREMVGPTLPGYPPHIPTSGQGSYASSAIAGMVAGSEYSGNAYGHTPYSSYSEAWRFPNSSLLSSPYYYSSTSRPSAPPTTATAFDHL

Fatty acid synthase [12] = molecular target: T7, Fatty acid synthase (Homo sapiens, UniProt P49327); test: FAS thioesterase domain inhibitors, dose response, biochemical, endpoint fluorescence intensity, uHTS hits (AID 624327); type: functional;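 also: fluorescence from hydrolysis of an O-methyl fluorescein acyl ester substrate by the enzyme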
T7 sequence (P49327 whole entry, the tested form may be a part): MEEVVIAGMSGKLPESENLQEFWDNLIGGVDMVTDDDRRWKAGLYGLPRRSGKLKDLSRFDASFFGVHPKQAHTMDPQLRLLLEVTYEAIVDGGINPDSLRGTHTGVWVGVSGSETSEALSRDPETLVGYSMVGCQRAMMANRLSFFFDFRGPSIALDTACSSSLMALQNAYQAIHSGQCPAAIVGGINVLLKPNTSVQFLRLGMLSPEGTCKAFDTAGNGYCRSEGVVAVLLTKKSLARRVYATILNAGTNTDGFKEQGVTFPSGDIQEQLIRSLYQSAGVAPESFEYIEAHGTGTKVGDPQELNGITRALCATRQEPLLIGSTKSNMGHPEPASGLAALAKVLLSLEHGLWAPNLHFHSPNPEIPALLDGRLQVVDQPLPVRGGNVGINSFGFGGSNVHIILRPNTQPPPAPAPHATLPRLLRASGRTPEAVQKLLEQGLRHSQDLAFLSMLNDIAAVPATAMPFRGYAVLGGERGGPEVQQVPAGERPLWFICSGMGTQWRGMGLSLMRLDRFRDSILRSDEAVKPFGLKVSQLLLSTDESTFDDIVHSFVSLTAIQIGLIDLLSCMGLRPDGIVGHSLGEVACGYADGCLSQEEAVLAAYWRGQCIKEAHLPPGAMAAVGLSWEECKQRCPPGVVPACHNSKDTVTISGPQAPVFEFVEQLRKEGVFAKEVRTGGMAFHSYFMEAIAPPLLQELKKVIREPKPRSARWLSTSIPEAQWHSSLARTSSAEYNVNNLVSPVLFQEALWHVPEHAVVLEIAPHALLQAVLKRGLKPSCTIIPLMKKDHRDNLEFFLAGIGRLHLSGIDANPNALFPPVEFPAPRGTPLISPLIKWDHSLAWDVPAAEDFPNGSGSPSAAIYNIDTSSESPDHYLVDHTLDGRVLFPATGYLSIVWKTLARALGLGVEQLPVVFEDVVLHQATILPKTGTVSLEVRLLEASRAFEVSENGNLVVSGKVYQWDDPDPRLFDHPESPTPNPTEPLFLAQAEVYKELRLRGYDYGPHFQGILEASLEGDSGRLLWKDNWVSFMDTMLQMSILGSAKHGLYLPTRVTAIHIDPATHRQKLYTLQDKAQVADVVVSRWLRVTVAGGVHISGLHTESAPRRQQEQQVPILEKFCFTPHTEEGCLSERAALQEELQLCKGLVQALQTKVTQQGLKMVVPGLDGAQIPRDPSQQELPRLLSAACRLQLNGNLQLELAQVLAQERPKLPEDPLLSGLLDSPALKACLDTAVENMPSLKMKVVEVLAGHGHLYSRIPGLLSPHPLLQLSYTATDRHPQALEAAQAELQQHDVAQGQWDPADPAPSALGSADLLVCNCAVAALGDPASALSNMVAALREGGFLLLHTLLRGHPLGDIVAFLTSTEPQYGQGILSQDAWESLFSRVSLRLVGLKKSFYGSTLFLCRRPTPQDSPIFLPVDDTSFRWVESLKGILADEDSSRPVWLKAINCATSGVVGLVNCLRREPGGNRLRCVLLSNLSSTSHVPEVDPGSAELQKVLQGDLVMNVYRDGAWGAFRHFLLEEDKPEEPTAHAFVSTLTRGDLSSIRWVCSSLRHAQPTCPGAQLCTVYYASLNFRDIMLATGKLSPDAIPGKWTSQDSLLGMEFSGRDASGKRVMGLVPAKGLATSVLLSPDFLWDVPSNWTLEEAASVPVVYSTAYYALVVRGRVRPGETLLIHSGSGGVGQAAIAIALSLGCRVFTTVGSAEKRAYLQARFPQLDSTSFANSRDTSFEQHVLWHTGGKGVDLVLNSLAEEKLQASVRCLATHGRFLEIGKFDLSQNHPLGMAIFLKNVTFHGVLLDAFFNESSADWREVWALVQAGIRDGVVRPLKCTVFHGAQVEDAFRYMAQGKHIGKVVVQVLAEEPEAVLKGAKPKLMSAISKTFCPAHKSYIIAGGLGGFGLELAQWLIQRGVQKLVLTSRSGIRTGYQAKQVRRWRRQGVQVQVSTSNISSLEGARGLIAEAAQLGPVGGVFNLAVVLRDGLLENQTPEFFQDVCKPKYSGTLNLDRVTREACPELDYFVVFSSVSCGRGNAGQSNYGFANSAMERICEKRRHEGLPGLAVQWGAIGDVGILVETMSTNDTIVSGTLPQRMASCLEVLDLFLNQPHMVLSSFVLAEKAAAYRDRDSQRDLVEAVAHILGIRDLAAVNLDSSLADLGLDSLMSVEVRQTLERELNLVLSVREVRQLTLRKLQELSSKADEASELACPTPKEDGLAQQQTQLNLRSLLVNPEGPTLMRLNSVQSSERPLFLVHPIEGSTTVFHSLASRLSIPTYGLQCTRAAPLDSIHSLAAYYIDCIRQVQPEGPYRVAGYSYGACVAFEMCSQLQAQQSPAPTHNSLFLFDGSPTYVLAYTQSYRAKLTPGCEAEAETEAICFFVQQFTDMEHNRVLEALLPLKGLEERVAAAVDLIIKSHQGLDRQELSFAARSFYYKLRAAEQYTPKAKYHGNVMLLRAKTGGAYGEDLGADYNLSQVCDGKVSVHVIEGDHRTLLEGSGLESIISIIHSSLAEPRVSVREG

Fatty acid synthase [13] = molecular target: T7, Fatty acid synthase; test: FAS thioesterase domain inhibitors, dose response, biochemical, kinetic fluorescence intensity (AID 624326); type: functional;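 also: rate of fluorescence rise from hydrolysis of a fluorogenic O-methyl fluorescein ester substrate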
[14] = molecular target: T8, Long-chain-fatty-acid--AMP ligase FadD28 (Mycobacterium tuberculosis, UniProt P9WQ59); test: Fluorescence polarization aasay to screen for inhibitors that compete for the binding of FadD28 to a bisubstrate Measured in Biochemical System Using Plate Reader - 2147-01_Inhibitor_Dose_CherryPick_Activity.; type: functional, Mycobacterium tuberculosis H37Rv
T8 sequence (P9WQ59 whole entry): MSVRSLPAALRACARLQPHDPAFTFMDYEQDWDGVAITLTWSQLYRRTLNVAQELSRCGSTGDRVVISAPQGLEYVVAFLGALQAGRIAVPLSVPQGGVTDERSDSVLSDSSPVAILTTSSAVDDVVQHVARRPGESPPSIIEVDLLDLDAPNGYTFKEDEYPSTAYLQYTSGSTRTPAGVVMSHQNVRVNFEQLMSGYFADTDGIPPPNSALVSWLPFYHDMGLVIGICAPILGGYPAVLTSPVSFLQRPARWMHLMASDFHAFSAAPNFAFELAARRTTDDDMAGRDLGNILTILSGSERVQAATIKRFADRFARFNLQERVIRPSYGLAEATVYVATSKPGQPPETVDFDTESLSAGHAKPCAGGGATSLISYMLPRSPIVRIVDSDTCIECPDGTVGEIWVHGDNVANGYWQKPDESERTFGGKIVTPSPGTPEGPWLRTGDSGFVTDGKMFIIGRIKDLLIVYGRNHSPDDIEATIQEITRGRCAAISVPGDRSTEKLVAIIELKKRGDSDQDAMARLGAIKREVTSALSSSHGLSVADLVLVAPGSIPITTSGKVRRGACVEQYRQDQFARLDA

Compound: COc1c(C(=O)Nc2nnc(C3CC3)s2)csc1Cl
- EC50 [1]: > 67.6 µM (inactive)
- EC50 (cells [2]): > 67.6 µM (inactive)

Compound: O=C(Nc1nccs1)c1c(O)nc2c(c1O)CCCC2
- EC50 [3]: 0.504 µM (active)
- EC50 [4]: 0.446 µM (active)
- EC50 [5]: 0.475 µM (active)
- EC50 (H4): < 0.1 µM (active)
- EC50 [6]: 0.999 µM (active)

Compound: CCOC(=O)Cn1nnnc1C(C(C)C)N(Cc1cccs1)Cc1cc2cc(C)ccc2nc1O (stereo not drawn)
- EC50 (cells [7]): > 29.9 µM (inactive)
- IC50 (Galanin receptor type 3): > 29.9 µM (inactive)

Compound: O=C(Nc1ccccc1)N1CC=C(c2ccccc2)CC1
- EC50 [3]: 0.376 µM (active)
- EC50 [4]: 0.237 µM (active)
- EC50 [5]: 0.272 µM (active)
- EC50 (H4): < 0.1 µM (active)

Compound: Nc1nn(-c2cccc(F)n2)cc1-c1ccc(Cl)cc1
- EC50 [8]: > 260 µM (inconclusive)
- EC50 [1]: > 67.6 µM (inactive)
- EC50 (cells [2]): > 67.6 µM (inactive)

Compound: CN1CCN(c2ccc(NC(=O)c3cc(S(N)(=O)=O)ccc3N3CCOCC3)cc2)CC1
- AC50 [9]: 8.83 µM (active)

Compound: O=C1c2cccc(Sc3ccccc3)c2C(=O)c2c(Sc3ccccc3)cccc21
- AC50 [10]: 5.27 µM (active)
- IC50 [11]: 6.16 µM (not active)

Compound: CC1OC(OC2C=C3CCC4C(CCC5(C)C(c6ccc(=O)oc6)CCC45O)C3(C)CC2)C(O)C(OC2OC(CO)C(O)C(O)C2O)C1O (stereo not drawn)
- EC50 (cells [7]): > 29.9 µM (inactive)
- IC50 (Galanin receptor type 3): > 29.9 µM (inactive)
- AC50 (Paired box protein Pax-8): < 0.26 µM (active)

Compound: Cc1cccc(C)c1Cn1c(C)c(C(=O)NCc2ccc([N+](=O)[O-])cc2)sc1=O
- IC50 (Fatty acid synthase [12]): 6.75 µM (active)
- IC50 (Fatty acid synthase [13]): 4.48 µM (active)
- AC50 [14]: 20.5 µM (active)

Compound: c1ccc(-c2csc(Nc3ccc4c(c3)OCO4)n2)cc1
- EC50 [1]: > 67.6 µM (inactive)
- EC50 (cells [2]): > 67.6 µM (inactive)

Compound: c1ccc2c(c1)COc1c3cc4c(cc3nn1-2)OCO4
- EC50 [1]: > 67.6 µM (inactive)
- EC50 (cells [2]): > 67.6 µM (inactive)

Compound: FC(F)(F)c1cccc(/C=N/NC(=S)NC2CCCCC2)c1
- EC50 (cells [7]): > 29.9 µM (inactive)
- IC50 (Galanin receptor type 3): 3.19 µM (active)

Compound: C[C@H](NCCc1ccc(O)cc1)[C@H](O)c1ccc(O)cc1 [RITODRINE]
- EC50 (cells [7]): > 29.9 µM (inactive)
- IC50 (Galanin receptor type 3): 0.932 µM (active)
